ChEMBL document CHEMBL4152293, “Synthesis and biological evaluation of podophyllotoxin derivatives as selective antitumor agents” (Eur J Med Chem, 2018)
Activity calls are given as the source filed them. No cut-off for these calls is given here.

Legend:
A549 [1] = assay: Cytotoxicity against human A549 cells assessed as growth inhibition after 72 hrs by MTT assay; type: functional, cell-based; settings: A549, 72 h
HepG2 [2] = assay: Cytotoxicity against human HepG2 cells assessed as growth inhibition after 72 hrs by MTT assay; type: functional, cell-based; settings: HepG2, 72 h
MCF7 [3] = assay: Cytotoxicity against human MCF7 cells assessed as growth inhibition after 72 hrs by MTT assay; type: functional, cell-based; settings: MCF7, 72 h
L02 [4] = assay: Cytotoxicity against human L02 cells assessed as growth inhibition after 72 hrs by MTT assay; type: cell-based; settings: L02, 72 h
A549 [5] = assay: Potency index, ratio of VP-16 IC50 to test compound IC50 for human A549 cells; type: functional
A549 [6] = assay: Potency index, ratio of doxorubicin IC50 to test compound IC50 for human A549 cells; type: functional
A549 [7] = assay: Induction of morphological changes in human A549 cells assessed as irregular shape at 10 to 30 nM after 72 hrs by DAPI staining-based fluorescence microscopic method; type: functional, cell-based
A549 [8] = assay: Induction of apoptosis in human A549 cells assessed as nuclear fragmentation at 10 to 30 nM after 72 hrs by DAPI staining-based fluorescence microscopic method; type: functional, cell-based
A549 [9] = assay: Induction of apoptosis in human A549 cells assessed as decrease in cell number at 10 to 30 nM after 72 hrs by DAPI staining-based fluorescence microscopic method; type: functional
L02 [10] = assay: Induction of morphological changes in human L02 cells assessed as irregular shape at 10 to 30 nM after 72 hrs by DAPI staining-based fluorescence microscopic method; type: cell-based; settings: l02, 72 h, 0.03 µM
L02 [11] = assay: Induction of apoptosis in human L02 cells assessed as nuclear fragmentation at 10 to 30 nM after 72 hrs by DAPI staining-based fluorescence microscopic method; type: cell-based; settings: l02, 72 h, 0.03 µM
L02 [12] = assay: Induction of apoptosis in human L02 cells assessed as decrease in cell number at 10 to 30 nM after 72 hrs by DAPI staining-based fluorescence microscopic method; settings: l02, 72 h, 0.03 µM
HepG2 [13] = assay: Potency index, ratio of VP-16 IC50 to test compound IC50 for human HepG2 cells; type: functional
HepG2 [14] = assay: Potency index, ratio of doxorubicin IC50 to test compound IC50 for human HepG2 cells; type: functional
[15] = Selectivity index, ratio of IC50 for human L02 cells to IC50 for human A549 cells; type: toxicity; settings: L02 cells versus A549 cells, read-out: Ratio IC50
MCF7 [16] = assay: Potency index, ratio of VP-16 IC50 to test compound IC50 for human MCF7 cells; type: functional
MCF7 [17] = assay: Potency index, ratio of doxorubicin IC50 to test compound IC50 for human MCF7 cells; type: functional

SMILES | IC50 (A549 [1]) [nM] | IC50 (HepG2 [2]) [nM] | IC50 (MCF7 [3]) [nM] | IC50 (L02 [4]) [nM] | other results
COc1cc([C@@H]2c3cc4c(cc3[C@H](OC(=O)[C@@H]3CCCN3)[C@H]3COC(=O)[C@H]23)OCO4)cc(OC)c1OC | 2.8 | 12.8 | 7.6 | 6.2 | 
COc1cc([C@@H]2c3cc4c(cc3[C@H](OC(=O)CNC(=O)OC(C)(C)C)[C@H]3COC(=O)[C@H]23)OCO4)cc(OC)c1OC | 1.6 | 26.6 | 11.3 | 7.3 | Ratio IC50 (A549 [5]): 5900; Ratio IC50 (A549 [6]): 140
COc1cc([C@@H]2c3cc4c(cc3[C@H](OC(=O)CN(C)C(=O)c3nc(C)c(C)nc3C)[C@H]3COC(=O)[C@H]23)OCO4)cc(OC)c1OC | 20.1 | 58.3 | 66.4 | 15.8 | 
COc1cc([C@@H]2c3cc4c(cc3[C@H](OC(=O)[C@@H]3CCCN3C(=O)c3nc(C)c(C)nc3C)[C@H]3COC(=O)[C@H]23)OCO4)cc(OC)c1OC | 80.1 | 112 | 122 | 132 | 
CNCC(=O)O[C@H]1c2cc3c(cc2[C@@H](c2cc(OC)c(OC)c(OC)c2)[C@H]2C(=O)OC[C@@H]21)OCO3 | 6.8 | 24.9 | 17.5 | 9.6 | Activity (A549 [7]): Active; Activity (A549 [8]): Active; Activity (A549 [9]): Active; Activity (L02 [10]): Toxic; Activity (L02 [11]): Toxic; Activity (L02 [12]): Toxic
COc1cc([C@@H]2c3cc4c(cc3[C@H](OC(=O)CNC(=O)c3nc(C)c(C)nc3C)[C@H]3COC(=O)[C@H]23)OCO4)cc(OC)c1OC | 9.3 | 11.7 | 39.9 | 18.2 | Ratio IC50 (HepG2 [13]): 4200; Ratio IC50 (HepG2 [14]): 59
CC[C@H](C)[C@H](NC(=O)OC(C)(C)C)C(=O)O[C@H]1c2cc3c(cc2[C@@H](c2cc(OC)c(OC)c(OC)c2)[C@H]2C(=O)OC[C@@H]21)OCO3 | 223 | 690 | 626 | 1120 | 
COc1cc([C@@H]2c3cc4c(cc3[C@H](OC(=O)[C@H](Cc3ccccc3)NC(=O)c3nc(C)c(C)nc3C)[C@H]3COC(=O)[C@H]23)OCO4)cc(OC)c1OC | 8.1 | 24.5 | 11.3 | 12 | 
COc1cc([C@@H]2c3cc4c(cc3[C@H](OC(=O)[C@H](C)NC(=O)OC(C)(C)C)[C@H]3COC(=O)[C@H]23)OCO4)cc(OC)c1OC | 17.3 | 81.5 | 107 | 110 | 
COc1cc([C@@H]2c3cc4c(cc3[C@H](OC(=O)[C@@H]3CCCN3C(=O)OC(C)(C)C)[C@H]3COC(=O)[C@H]23)OCO4)cc(OC)c1OC | 148 | 246 | 277 | 396 | 
CC[C@H](C)[C@H](N)C(=O)O[C@H]1c2cc3c(cc2[C@@H](c2cc(OC)c(OC)c(OC)c2)[C@H]2C(=O)OC[C@@H]21)OCO3 | 19.2 | 22.5 | 17.3 | 11.1 | 
COc1cc([C@@H]2c3cc4c(cc3[C@@H](O[C@@H]3O[C@@H]5CO[C@@H](C)O[C@H]5[C@H](O)[C@H]3O)[C@H]3COC(=O)[C@H]23)OCO4)cc(OC)c1O [ETOPOSIDE] | 9470 | > 50000 | 4720 | 3480 | selectivity ratio [15]: 0.5
COc1cc([C@@H]2c3cc4c(cc3[C@H](OC(=O)[C@@H](N)Cc3ccccc3)[C@H]3COC(=O)[C@H]23)OCO4)cc(OC)c1OC | 3.8 | 27.3 | 15.6 | 8.9 | 
COc1cc([C@@H]2c3cc4c(cc3[C@H](OC(=O)[C@@H](N)CC(C)C)[C@H]3COC(=O)[C@H]23)OCO4)cc(OC)c1OC | 14.7 | 27.1 | 8.6 | 21.6 | 
CC[C@H](C)[C@H](NC(=O)c1nc(C)c(C)nc1C)C(=O)O[C@H]1c2cc3c(cc2[C@@H](c2cc(OC)c(OC)c(OC)c2)[C@H]2C(=O)OC[C@@H]21)OCO3 | 119 | 348 | 988 | 420 | 
COc1cc([C@@H]2c3cc4c(cc3[C@H](OC(=O)[C@H](C)NC(=O)c3nc(C)c(C)nc3C)[C@H]3COC(=O)[C@H]23)OCO4)cc(OC)c1OC | 15.8 | 26.9 | 15.6 | 25.5 | 
COc1cc([C@@H]2c3cc4c(cc3[C@H](OC(=O)CN)[C@H]3COC(=O)[C@H]23)OCO4)cc(OC)c1OC | 12.9 | 17.5 | 7.2 | 14.5 | Ratio IC50 (MCF7 [16]): 650; Ratio IC50 (MCF7 [17]): 10
COc1cc([C@@H]2c3cc4c(cc3[C@H](OC(=O)[C@H](CC(C)C)NC(=O)c3nc(C)c(C)nc3C)[C@H]3COC(=O)[C@H]23)OCO4)cc(OC)c1OC | 62.4 | 89.1 | 127 | 140 | 
COc1cc([C@@H]2c3cc4c(cc3[C@H](OC(=O)[C@H](CC(C)C)NC(=O)OC(C)(C)C)[C@H]3COC(=O)[C@H]23)OCO4)cc(OC)c1OC | 130 | 106 | 110 | 180 | 
COc1cc([C@@H]2c3cc4c(cc3[C@H](OC(=O)[C@H](Cc3ccccc3)NC(=O)OC(C)(C)C)[C@H]3COC(=O)[C@H]23)OCO4)cc(OC)c1OC | 30.2 | 87.1 | 95.3 | 78.4 | 
COc1cccc2c1C(=O)c1c(O)c3c(c(O)c1C2=O)C[C@@](O)(C(=O)CO)C[C@@H]3O[C@H]1C[C@H](N)[C@H](O)[C@H](C)O1 [DOXORUBICIN] | 228 |  |  | 53.3 | 
COc1cc([C@@H]2c3cc4c(cc3[C@H](OC(=O)c3nc(C)c(C)nc3C)[C@H]3COC(=O)[C@H]23)OCO4)cc(OC)c1OC | 76.9 | 57.8 | 63.5 | 115 | 
COc1cc([C@@H]2c3cc4c(cc3[C@H](OC(=O)[C@H](C)N)[C@H]3COC(=O)[C@H]23)OCO4)cc(OC)c1OC | 13.6 | 17.8 | 18.5 | 10.8 | 
